From patent publication US5929082A, “Potassium ion channel blockers” (priority 1995, dated 1999)

What was measured:
[1] = Kinetic/metabolite studies: HPLC analysis of plasma after oral administration; format: in vivo, Sprague-Dawley rats; conditions: for Compound in plasma / metabolites observed in plasma: after oral administration, HPLC; for metabolites observed in plasma: in words
Method: Plasma samples were collected in order to test the correlation of plasma drug (or metabolite) concentration with hypoglycaemic activity, and to determine whether compounds of the invention were converted in vivo into active metabolites. The plasma levels of test compounds or metabolites also give an indication of rate of metabolism and kinetics of drug action.
Blood samples collected from rats treated as above and collected at the same intervals were analysed using an ICI LC1150 HPLC system and a LC1210 UV detector at a wavelength of 227 nm. The HPLC system used a Merck LiChroCART 125-4 LiChrosphere 100 RP-18 HPLC and LiChrosphere 100 RP-18 guard columns. The mobile phase consisted of 70% acetonitrile and a 30% aqueous sodium phosphate buffer at pH 7.45 and was prepared using standard HPLC grade reagents and distilled water. To improve the resolution of peaks and separation of the compounds a gradient method was established where changes in the concentration of the required buffers and solvents, and the time at which these changes occur is outlined in Table 7. The volumes are expressed as percentages of the total flow rate, with the flow rate remaining constant at […].
The data were acquired using the WinChrom Data Management system and were calibrated using stock solutions of the test compounds and Glibenclamide as an internal standard dissolved in 100% methanol
Plasma (250 μL) collected from the rats were extracted into methanol (700 μL) and 50 μL of Glibenclamide (25 μg/ml). The mixture was then agitated with a vortex mixer for 15 sec and centrifuged for 10 min. The clear supernatant was then carefully aspirated for HPLC analysis.
The results are outlined in Table 8 and show retention times (minutes) for the compounds and their metabolites as analysed by HPLC after oral administration in Sprague-Dawley rats. […] Glibenclamide is shown for comparison only, none of the metabolites observed with the test compounds correspond to metabolites of Glibenclamide.

[2] = Hypoglycaemic activity: change in blood glucose after oral gavage; format: in vivo, Sprague Dawley rats; conditions: 1.6 mg/kg oral gavage, normal fed male rats
Method: The biological activity of representative compounds of the invention was evaluated by means of several different tests. The activity of compounds of this invention as hypoglycaemic agents was measured and compared with the activity of the known compound of Example 1, using methods described in the literature. Thus normal, fed male Sprague Dawley rats weighing between 275 and 375 g were studied for changes in blood sugar levels and alterations to mean arterial blood pressure following administration of representative compounds of the invention suspended in a 5% solution of gum acacia by oral gavage at a dose of 1.6 mg/kg. The concentration of each compound was 4 mg in 10 ml, so that each rat received 1.1-1.5 ml to obtain the desired dose on a body weight basis. The blood sugar levels were recorded for each rat immediately prior to administration, and at 1, 2, and 3 hr following administration of the test compounds. Blood glucose levels were determined on blood samples taken from the tail, and analysed on an Ames blood glucometer, model 5626, and Ames, 2627 blood glucose strips (number 2). […] It is apparent that generally the heterocyclic sulphonylthioureas have greater activity than the sulphonylureas. Without wishing to be bound by any proposed mechanism for the observed effect, we believe that this may be associated with differences in lipid permeability.

[3] = test system: isolated guinea pig atria; test: Cardiac effects on isolated atrial preparations; parameters: species or system English short-haired guinea pigs; conditions: bath concentration 8×10^-6 M, 37° C., maximum responses
Method: Preliminary investigations were performed on isolated atrial preparations, and the results obtained using representative compounds of the invention compared to those obtained using the known compound of Example 1 and using Glibenclamide. English short-haired guinea pigs weighing between 200 and 300 g were killed by cervical dislocation. The whole heart was quickly removed by dissection and immersed in a Krebs-Henseleit solution, which had been aerated with carbogen (95% oxygen and 5% carbon dioxide). The atria were then separated by dissection in Krebs-Henseleit solution, whilst being aerated with carbogen.
The atria were then immersed in a 10 ml organ bath containing Krebs-Henseleit solution, maintained at 37° C. for the duration of the experiment by the circulation of water through the water jackets of organ baths by a temperature controlled water pump (Braun Thermomix, Germany), and aerated with carbogen. […] Changes in tension were measured by isometric force transducers and were recorded on a four channel Grass 7P Polygraph (Grass Instruments, Quincy, Mass., USA) which was calibrated daily such that the atria functioned with a resting tension of 1 g. The rate of beating of the atria was measured by the tachograph.
The activity of each test compound was assessed and compared to that of glibenclamide. […]

| Compound in plasma [1] | time within which the compound is metabolised after administration ([1]; oral administration) | Compound | metabolites observed in plasma [1] | Change in Blood Glucose, 0 hours [2] | Change in Blood Glucose, 1 Hour [2] | Change in Blood Glucose, 2 Hours [2] | Change in Blood Glucose, 3 Hours [2] | inotropic activity [3] |
| --- | --- | --- | --- | --- | --- | --- | --- | --- |
| yes |  | CCOc1cccc(NC(=O)NS(=O)(=O)c2ccc(C)cc2)n1 [Compound 1-4, N-[(4-Methylphenyl)sulphonyl]-N'-(6-ethoxypyrid-2-yl)urea] | no metabolites were observed in the 4 hour period |  |  |  |  |  |
|  |  | Cc1ccc(S(=O)(=O)NC(=S)Nc2cccc(Br)n2)cc1 [Compound 1-21, N-[(4-Methylphenyl)sulphonyl]-N'-(6-bromopyrid-2-yl)thiourea] |  | 0.0 mmol/L | -0.9 mmol/L | -2.1 mmol/L | -0.7 mmol/L |  |
|  |  | Cc1ccc(S(=O)(=O)NC(=S)Nc2nc(C)cc(C)n2)cc1 [Compound 4-36, N-[(4-Methylphenyl)sulphonyl]-N'-(4,6-dimethylypyrimid-2-yl)thiourea] |  | 0.0 mmol/L | -1.1 mmol/L | -1.6 mmol/L | -1.3 mmol/L |  |
|  |  | Cc1ccc(S(=O)(=O)NC(=O)Nc2nc(C)cc(C)n2)cc1 [Compound of Example 1, reference compound] |  | 0.0 mmol/L | -0.8 mmol/L | -2.1 mmol/L | -0.8 mmol/L |  |
|  |  | Cc1ccc(S(=O)(=O)NC(=S)Nc2ccncc2)cc1 [Compound 3-23, N-[(4-Methylphenyl)sulphonyl]-N'-(4-pyridyl)thiourea] |  | 0.0 mmol/L | -1.0 mmol/L | -1.4 mmol/L | -2.1 mmol/L | particularly marked inotropic activity |
| no | ≤ 2 h | CCOc1cc(NC(=S)NS(=O)(=O)c2ccc(C)cc2)ccn1 [Compound 3-15, N-[(4-Methylphenyl)sulphonyl]-N'-(2-ethoxypyrid-4-yl)thiourea] | numerous metabolites in the plasma |  |  |  |  |  |
